{
  "source": "patent US20260091136A1",
  "about": "“USING ENHO GENE THERAPY TO TREAT CARDIOMETABOLIC DISEASE” (University of Pittsburgh-of the Commonwealth System of …, priority 2023, published 2026)",
  "key": {"HFpEF mice [1]": {"tested_on": "HFpEF mice", "assay": "Glucose tolerance testing (IPGTT) in HFpEF mice (Example 1)", "type": "in vivo", "conditions": "for glucose tolerance: HFpEF mice, four weeks of Adropin treatment", "description": "Administration of Recombinant Adropin. Mice received low-fat chow or HFpEF diet for 10 weeks. For the following 4 weeks, the mice were maintained on respective diets and received daily injections of recombinant Adropin. Body weight was measured every day during the four weeks of treatment.\nGlucose tolerance testing. Glucose tolerance was tested (IPGTT), following a 2 g/kg bolus of glucose. Blood was collected at 15 mins, 30 mins, 45 mins, 60 mins, 90 mins, and 120 mins, and measured using a standard glucometer (Bayer Next EZ). Time-courses for blood glucose uptake will be generated and analyzed for significance using standard statistical tests."}, "HFpEF mice [2]": {"tested_on": "HFpEF mice", "assay": "Heart weight and heart histology (Masson's trichrome, WGA), cohort 2", "type": "in vivo, C57BL/6J mice", "conditions": "for cardiac fibrosis / cardiomyocyte hypertrophy: HFpEF mice following Adropin treatment, histology", "description": "(§1) Animal Care and Use. Male C57BL/6J 8-week-old mice were obtained from the Jackson Laboratory and maintained on chow for 4 weeks to acclimate to their new environment. Animals were housed in the University of Pittsburgh animal facility under standard conditions with ad libitum access to water and food and maintained on a constant 12-hour light/dark cycle. At 12 weeks of age, the mice were exposed to normal chow (Chow; 60% carbohydrate, 26% protein, 14% fat), or a combination of high-fat diet (HFD; 20% carbohydrate, 20% protein, 60% fat) plus No-nitro-L-arginine methyl ester (L-NAME: 0.5 g/L) supplemented in their drinking water after adjusting the pH to 7.4 with 1N NaOH to induce HFpEF [10]. For cohort 1, the mice were subject to the HFpEF diet for 15 weeks. For cohort 2, after 8 weeks of diet, mice were randomly assigned to a control or treatment group receiving daily intraperitoneal injections of either vehicle or recombinant adropin at 450 nmol/kg animal weight prepared in PBS with 0.1% BSA for the remaining 5 weeks of the study. L-NAME supplemented drinking water was changed weekly and adropin was made fresh and sterile filtered before each use.\nHistology. Preparation and staining of all histological samples were conducted by the Pitt Biospecimen Core at the University of Pittsburgh. All mice were sacrificed, and tissue harvested for analysis within one hour of completion of the IPGTT study. The apex of the heart and right (cohort 1) or left (cohort 2) lobe of the liver was excised from each mouse following euthanasia, fixed in 10% buffered formalin phosphate overnight at shaking incubation, washed 3 times for 5 min with 1× phosphate-buffered saline (PBS), and then transferred to 70% ethanol. Samples were then embedded in paraffin, sectioned into 4 μm slides and stained with hematoxylin and eosin (H&E), wheat germ agglutinin (WGA) or Masson's Trichrome for analysis. The NAFLD/MAFLD activity score (NAS) was obtained based on methods established by the Pathology Committee of the Non-alcoholic Steatohepatitis (NASH) Clinical Research Network. Liver pathology scoring was performed in a blinded independent fashion. NAS consisted of separate category scores which included steatosis (0-3), where 0=0-5%, 1=6-33%, 2=34-66%, and 3=67-100% of hepatocytes positive for steatosis; lobular inflammation (0-3), where 0=no foci, 1=[…], 2=2-4 foci and 3=greater than 4 foci all per 200× field; and hepatocellular ballooning (0-2), where 0=none present, 1=few and 2=many/prominent. The final NAS represents a sum of the three category scores. Histology sections were visualized with the Evos FL Auto 2 Microscope, observed changes in structure were quantified using ImageJ software and representative images are shown."}, "HFpEF mice [3]": {"tested_on": "HFpEF mice", "assay": "Liver H&E histology, NAFLD/MAFLD activity score (NAS), cohort 2", "type": "in vivo, C57BL/6J mice", "conditions": "adropin-treated vs HFpEF mice; non-significant", "description": "as §1\nHistology. […] Histology sections were visualized with the Evos FL Auto 2 Microscope, observed changes in structure were quantified using ImageJ software and representative images are shown."}, "[4]": {"tested_on": "hexosamine biosynthesis pathway (HBP)", "assay": "Immunoblotting of cardiac proteins (O-GlcNAc, GFAT, OGT, OGA, CD36, PDK4, PLIN5)", "type": "in vivo, C57BL/6J mice", "conditions": "heart; for CD36 abundance: to levels observed in chow mice; for total cardiac protein O-GlcNAcylation: to levels observed in chow mice (P=0.06 in b192)", "description": "as §1\nProtein Isolation and Immunoblotting. Heart tissues were rapidly harvested following euthanasia, weighed, RV discarded and LV flash-frozen in liquid nitrogen. For protein isolation, tissues were minced and lysed in CHAPS buffer (1% CHAPS, 150 mM NaCl, 10 mM HEPES, pH 7.4) using a VWR 4-Place Mini Bead Mill, then incubated on ice for ˜2.5 h. Homogenates were spun at 10,000 g at 4° C. for 10 min, and the supernatants collected for immunoblotting. For immunoblotting, protein lysates were quantitated using a BioDrop LITE Analyzer, prepared in LDS sample buffer, separated using Bolt SDS-PAGE 4-12% or 12% Bis-Tris Plus gels, and transferred to nitrocellulose membranes. Membranes were blocked using SuperBlock (PBS) Blocking Buffer and incubated overnight in the following primary antibodies: rabbit PDK4 (PA5-13776); mouse 0-GlcNAc (9875), rabbit GFAT (D12F4), rabbit OGT (D1D8Q), rabbit OGA (E9C5U), rabbit GAPDH (2118S); rabbit CD36 (18836-1-AP), rabbit CPT1b (22170-1-AP), rabbit LCAD (17526-1-AP), and GCN5L1 as previously reported (Scott et al., 2012). Protein loading was confirmed using GAPDH as a loading control. Fluorescent […] or anti-rabbit secondary antibodies (red, 700 nm; green, 800 nm) were used to detect expression levels. Images were obtained using Licor Odyssey CLx System and protein densitometry was measured using the LiCor Image Studio Lite Ver. 5.2 Software."}, "CPT1b": {"tested_on": "CPT1b", "assay": "O-GlcNAc co-immunoprecipitation from heart: CPT1b", "type": "in vivo, C57BL/6J mice", "conditions": "Adropin-treated HFpEF mice, relative to levels in chow mice / HFpEF", "description": "as §1\n(§2) Co-Immunoprecipitation. […] Images were obtained using LiCor Odyssey CLx System and protein densitometry was measured using the LiCor Image Studio Lite Ver. […]"}, "LCAD": {"tested_on": "LCAD", "assay": "O-GlcNAc co-immunoprecipitation from heart: LCAD", "type": "in vivo, C57BL/6J mice", "conditions": "Adropin-treated HFpEF mice, relative to levels in chow mice / HFpEF", "description": "as §1, §2"}, "[5]": {"tested_on": "hearts isolated from chow-fed mice", "conditions": "cited from earlier work"}, "[6]": {"conditions": "IPGTT AUC analysis, p-value <0.05"}, "[7]": {"conditions": "Adropin-treated HFpEF mice, listed as adropin"}},
  "note": "Entries after “also recorded” stand apart in the source; their conditions may differ.",
  "data": [
    {"substance": "Adropin: recombinant Adropin peptide hormone encoded by the ENHO gene; full-length (SEQ ID NO: 1) or cleaved product of amino acids 34-76 (SEQ ID NO: 2) (CHSRSADVDSLSESSPNSSPGPCPEKAPPPQKPSHEGSYLLQP)", "values": [
      {"measurement": "average blood glucose, IPGTT", "setting": "HFpEF mice [1]; HFpEF mice that received Adropin, by the 120 minute timepoint", "result": "gradually decreased to match control chow mice"},
      {"measurement": "glucose tolerance", "setting": "HFpEF mice [1]", "result": "increase"},
      {"measurement": "glucose tolerance", "setting": "HFpEF mice [1]; listed as Recombinant Adropin", "result": "significant increase"},
      {"measurement": "blood glucose AUC of HFpEF mice that received Adropin relative to control chow mice", "setting": "HFpEF mice [1]; [6]", "result": "significantly greater"},
      {"measurement": "blood glucose AUC of HFpEF mice without Adropin relative to HFpEF mice that received Adropin", "setting": "HFpEF mice [1]; [6]", "result": "significantly greater"},
      {"measurement": "increase in normalized heart weight to tibia length", "setting": "HFpEF mice [2]; HFpEF increase vs chow, in adropin-treated animals", "result": "absent"},
      {"measurement": "cardiac fibrosis", "setting": "HFpEF mice [2]", "result": "prevented the development; also recorded: reduced"},
      {"measurement": "cardiomyocyte hypertrophy", "setting": "HFpEF mice [2]", "result": "prevented the development; also recorded: reduced"},
      {"measurement": "cardiac fibrosis", "setting": "HFpEF mice [2]; listed as adropin", "result": "reversed"},
      {"measurement": "cardiomyocyte hypertrophy", "setting": "HFpEF mice [2]; listed as adropin", "result": "reversed"},
      {"measurement": "decrease in liver NAS", "setting": "HFpEF mice [3]", "result": "~7", "unit": "%"},
      {"measurement": "PDK4 enzyme expression", "setting": "[4]", "result": "no observed changes"},
      {"measurement": "inhibition of cardiac protein O-GlcNAcylation by mediating expression of OGT and OGA", "setting": "[4]", "result": "did not inhibit"},
      {"measurement": "GFAT expression", "setting": "[4]; Adropin-treated HFpEF mice", "result": "did not reduce"},
      {"measurement": "CD36 abundance", "setting": "[4]; Adropin-treated HFpEF mice", "result": "restored"},
      {"measurement": "total cardiac protein O-GlcNAcylation", "setting": "[4]; Adropin-treated HFpEF mice", "result": "restored; also recorded: decrease"},
      {"measurement": "total cardiac protein O-GlcNAcylation", "setting": "[4]; [7]", "result": "restored"},
      {"measurement": "CD36 abundance", "setting": "[4]; [7]", "result": "restored; also recorded: significantly attenuated"},
      {"measurement": "PLIN5 expression (aberrant fatty acid utilization)", "setting": "[4]; increased in HFpEF vs chow", "result": "corrected"},
      {"measurement": "CPT1b O-GlcNAcylation", "setting": "CPT1b", "result": "restored; also recorded: reduced"},
      {"measurement": "LCAD O-GlcNAcylation", "setting": "LCAD", "result": "restored; also recorded: reduced"},
      {"measurement": "cardiac contractility", "setting": "[5]; acute adropin treatment, hearts isolated from chow-fed mice [32]", "result": "increase"},
      {"measurement": "effect on cardiac contractility after exposure to a long-term HFD", "setting": "[5]; ex vivo perfusion studies [33]", "result": "lost"}
    ]}
  ]
}
